# Literature values in patent publication US20190053509A1, “NITROUS OXIDE MIXTURES AND METHODS OF USE” (Korvata Inc., priority 2015, published 2019).
# Read-outs that look alike come from different tables or passages of the source.
# Columns and labels:
# [1] = 101.3 kPa (1 atm); for Bunsen solubility coefficient in olive oil: olive oil at 22° C.; for Bunsen solubility coefficient in water: water at 0° C.
# [2] = relative to nitrogen standardized to 1.0; from J Applied Physiology 1994; 76(1): 439-444
SMILES,Bunsen solubility coefficient in olive oil [1],Bunsen solubility coefficient in water [1],RNP (Relative Narcotic Potency) [2],lipid solubility (25° C. and 36 psi),lipid solubility (25° C. and 181 psi)
"[Xe] [Xe, xenon]",1.9 L gas/L,0.1920 L gas/L,–,–,–
"[He] [He, helium]",0.015 L gas/L,0.0078 L gas/L,0.045,–,–
"O=O [Example O2, oxygen]",0.11 L gas/L,0.0387 L gas/L,–,–,–
"[Kr] [Kr, krypton]",0.44 L gas/L,0.0856 L gas/L,7.1,–,–
"[Ar] [Ar, argon]",0.15 L gas/L,0.0421 L gas/L,2.3,–,–
"[Ne] [Ne, neon]",0.052 L gas/L,0.0101 L gas/L,0.3,–,–
"[N-]=[N+]=O [Example N2O, nitrous oxide]",3.6 L gas/L,1.0710 L gas/L,39,7.08 mg/mL,23.14 mg/mL
